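The compound was tested at five concentrations on cells cultured in 96-well plates, with a 48-hour exposure period. Here, GI50 denotes the concentration required for 50% inhibition of growth. At the TGI there is no net growth.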
Assays:
Assay in all cases: NCI-60 cell line screen, 48 h
[1] = system: HCT-116 colon
[2] = system: OVCAR-8 ovarian
[3] = system: T-47D breast
[4] = system: MALME-3M melanoma
[5] = system: HCT-15 colon
[6] = system: SF-268 CNS
[7] = system: NCI-H522 lung
[8] = system: UACC-257 melanoma
[9] = system: M14 melanoma
[10] = system: BT-549 breast
[11] = system: MDA-MB-231 breast
[12] = system: HOP-92 NSCLC
[13] = system: SF-295 CNS
[14] = system: 786-0 renal
[15] = system: COLO 205 colon
[16] = system: HCC-2998 colon
[17] = system: CAKI-1 renal
[18] = system: MCF7 breast
[19] = system: HT29 colon
[20] = system: UO-31 renal
[21] = system: NCI-H226 lung
[22] = system: SF-539 CNS
[23] = system: IGROV1 ovarian
[24] = system: NCI/ADR-RES ovarian
[25] = system: SK-MEL-2 melanoma
[26] = system: PC-3 prostate
[27] = system: SK-MEL-5 melanoma
[28] = system: MOLT-4 leukemia
[29] = system: U251 CNS
[30] = system: SK-MEL-28 melanoma
[31] = system: SN12C renal
[32] = system: SNB-75 CNS
[33] = system: K-562 leukemia
[34] = system: NCI-H460 lung
[35] = system: SNB-19 CNS
[36] = system: SW-620 colon
[37] = system: RPMI-8226 leukemia
[38] = system: A549 NSCLC
[39] = system: OVCAR-4 ovarian
[40] = system: MDA-MB-435
[41] = system: SK-OV-3 ovarian
[42] = system: TK-10 renal
[43] = system: EKVX NSCLC
[44] = system: ACHN renal
[45] = system: OVCAR-5 ovarian
[46] = system: HS 578T breast
[47] = system: UACC-62 melanoma
[48] = system: NCI-H23 lung
[49] = system: DU-145 prostate

`N#Cc1cccc(OCc2ccccc2COc2cccc(C#N)c2)c1` gave a GI50 [1] of 22 µM, a TGI [1] of 93.3 µM and a GI50 [2] of 55.9 µM. For the same compound, the TGI [2] was greater than 100 µM, the GI50 [3] was 55.6 µM and the TGI [3] was greater than 100 µM. It also gave a GI50 [4] of 4.02 µM, a TGI [4] of 38 µM and a GI50 [5] greater than 100 µM. It also gave a TGI [5] greater than 100 µM, a GI50 [6] of 25 µM and a TGI [6] of 61.2 µM. The GI50 [7] was 98.1 µM, the TGI [7] was greater than 100 µM and the GI50 [8] was greater than 100 µM. The TGI [8] was greater than 100 µM, the GI50 [9] was 43.9 µM and the TGI [9] was greater than 100 µM. For the same compound, the GI50 [10] was 36.7 µM, the TGI [10] was 93.3 µM and the GI50 [11] was 7.83 µM. The TGI [11] was 47.5 µM, the GI50 [12] was 2.36 µM and the TGI [12] was 15.4 µM. The GI50 [13] was 5.64 µM, the TGI [13] was 20.3 µM and the GI50 [14] was 12.3 µM. For the same compound, the TGI [14] was 27.7 µM, the GI50 [15] was 33.8 µM and the TGI [15] was 98.3 µM. For the same compound, the GI50 [16] was greater than 100 µM, the TGI [16] was greater than 100 µM and the GI50 [17] was 11.1 µM. It also gave a TGI [17] of 25.1 µM, a GI50 [18] of 50.3 µM and a TGI [18] greater than 100 µM. The GI50 [19] was greater than 100 µM, the TGI [19] was greater than 100 µM and the GI50 [20] was 51.3 µM. For the same compound, the TGI [20] was greater than 100 µM, the GI50 [21] was 29.1 µM and the TGI [21] was 88.1 µM. It also gave a GI50 [22] of 18.8 µM, a TGI [22] of 35.5 µM and a GI50 [23] greater than 100 µM. For the same compound, the TGI [23] was greater than 100 µM, the GI50 [24] was 50.1 µM and the TGI [24] was greater than 100 µM. The GI50 [25] was greater than 100 µM, the TGI [25] was greater than 100 µM and the GI50 [26] was 25.5 µM. It also gave a TGI [26] greater than 100 µM, a GI50 [27] of 43.4 µM and a TGI [27] greater than 100 µM. The GI50 [28] was greater than 100 µM, the TGI [28] was greater than 100 µM and the GI50 [29] was 19.4 µM. The TGI [29] was 43.4 µM, the GI50 [30] was greater than 100 µM and the TGI [30] was greater than 100 µM. The GI50 [31] was 19 µM, the TGI [31] was 73.1 µM and the GI50 [32] was 29.7 µM. The TGI [32] was 70.4 µM, the GI50 [33] was 64.5 µM and the TGI [33] was greater than 100 µM. For the same compound, the GI50 [34] was 40.8 µM, the TGI [34] was greater than 100 µM and the GI50 [35] was greater than 100 µM. For the same compound, the TGI [35] was greater than 100 µM, the GI50 [36] was greater than 100 µM and the TGI [36] was greater than 100 µM. For the same compound, the GI50 [37] was 15 µM, the TGI [37] was 59.1 µM and the GI50 [38] was 42.5 µM. The TGI [38] was greater than 100 µM, the GI50 [39] was 54.8 µM and the TGI [39] was greater than 100 µM. The GI50 [40] was 25.4 µM, the TGI [40] was greater than 100 µM and the GI50 [41] was 35.7 µM. The TGI [41] was greater than 100 µM, the GI50 [42] was 11.8 µM and the TGI [42] was 29.5 µM. It also gave a GI50 [43] of 28.3 µM, a TGI [43] of 69.2 µM and a GI50 [44] of 27.2 µM. For the same compound, the TGI [44] was 86.3 µM, the GI50 [45] was 87 µM and the TGI [45] was greater than 100 µM. For the same compound, the GI50 [46] was 30.9 µM, the TGI [46] was 70.5 µM and the GI50 [47] was 18.3 µM. The TGI [47] was 73 µM, the GI50 [48] was 36.7 µM and the TGI [48] was greater than 100 µM. It also gave a GI50 [49] of 25.9 µM and a TGI [49] of 99.1 µM.
